Experimental data published in patent US20230002344A1, “NOVEL BENZOTHIOPHENE DERIVATIVES AND USE THEREOF FOR STIMULATING MITOCHONDRIAL TURNOVER” (NIBN, The National Institute For Biotechnology In The Negev …, priority 2019, published 2023).

How the values were obtained:
Assay type in all cases: cell-based
[1] = test system: INS1 cells; experiment: Cell growth rate under doxycycline; conditions: 1 mg/ml, 24, 48 and 72 hours
Experimental: (§1) INS1 (an insulin secreting cell line) cells (FIGS. 1A and 1B) and primary beta-cells (FIG. 1C) were treated with 1 mg/ml doxycycline for 72 hours. […] FIGS. 1B and 1C show basal Oxygen Consumption Rate (OCR) measured with Seahorse XF 24 respirometer. Average of 4 wells +/−SEM.

[2] = test system: primary beta-cells; experiment: Basal oxygen consumption rate in primary beta-cells; conditions: 1 mg/ml, 72 hours
Experimental: as §1

[3] = test system: INS1 cells expressing MitoTimer; experiment: MitoTimer red/green ratio high-content screen and dose-response; conditions: Rapamycin 100 nM, 18 h; for MitoTimer red/green ratio (known modulators): Urolithin 50 uM, Bafilomycin 200 nM, Chloroquine 20 uM
Experimental: INS1 cells were stably transduced with MitoTimer by lentiviral infection and were tested using known modulators of autophagy. The paradigm used was based on previous reports showing that the shift in emission from green to red occurs within 18 hours. Assuming that this shift is constant, changes in red FI occurring during this frame of time can result from an effect on MitoTimer clearance and not from an effect on synthesis. The paradigm employed consisted therefore of a treatment lasting 18 hours followed by imaging.
Stimulators of mitochondrial clearance were defined as those inducing a red-to-green FI below −3 and a red intensity below −5.1. Suppressors of mitochondrial clearance were defined as those inducing a red-to-green FI above 10.34 and a red intensity above 4.5. […] Compounds displaying high green FI (above 15) were also discarded to prevent the inclusion of autofluorescent molecules. Only molecules that filled the above criteria in both duplicates were further tested.
The screen was performed during 8 sessions in Weizmann institute. All compounds were tested at a concentration of 10 μM, in duplicates. The images were processed to reduce background (using Metamorph software) and then analyzed in GeneData software.
We subjected those compounds to a dose-response assay (concentrations: 10, 3.33, 1.11, 0.37 and 0.12 μM).
MitoTimer expressing INS1 cells generation, Cell Culture and treatments. MitoTimer-reporter was cloned into the pHAGE2 lenti-vector under the full-length EF1-alpha promoter to obtain constitutive expression. For the HCS, INS1 cells were infected with lentivirus carrying mitochondrial complex-I-targeted-MitoTimer plasmid. Highly expressing cells were selected by high speed fluorescence activated cell sorter (SY3200 cell sorter, Synergy, iCyt) and kept by the addition of puromycin (1 mg . L-1) in the cell media. Cells were thawed before each experiment, and MitoTimer expression checked through fluorescence.
High-Content Screening. […] HCS assay was developed at the Drug Discovery Unit, INCPM, Weizmann Institute of Science. […] Briefly, cells were treated with 10 uM of each compounds for 18 h and imaged in two wavelengths (FITC—excitation […], emission 520/35 nm and TRITC—excitation 543/22 nm, emission 593/40 nm) at ImageXpress Micro High-Content Imaging System/Molecular Devices. Rapamycin 100 nM was used as a control. In each cell plate, the neutral (DMSO) and positive control (Rapamycin) were repeated in 16 replicates while the treatments were performed in duplicates. Each plate was replicated and only hits found in the 2 independent plates were considered. Two fields of each well were analyzed, what normally allowed the analysis of 20-40 cells per condition. MitoTimer red/green ratio for every cell was done in MetaXpress. […] The compounds which affected MitoTimer red/green ratio in a dose response, ranging from […], were classified as a hit.
Individual cells were identified using the red channel, and red and green MitoTimer fluorescence were analyzed and ratio determined per cell.

[4] = test system: INS1 cells; experiment: Mitochondrial mass by Mitotracker green staining; conditions: 18 h; SPB08007 25 μM, MWP00839 11.5 μM, Urolithin A 25 μM
Experimental: The Z-score depicts the standard deviation from the neutral control (DMSO). In FIG. 3C: Mitochondrial mass in INS1 cells treated for 18 hours with either DMSO (control), Urolithin A (25 μM), SPB08007 (“SBP”) (25 μM) or MWP00839 (“MWP”) (11.5 μM) and then stained with Mitotracker green (200 nM). In FIG. 3D: SPB08007 and MWP00839 increase the number of mitochondria inside autolysosomes. INS1 cells expressing mCherry-GFP were exposed to SPB08007, MWP00839, and DMSO for 8 hours and then subjected to confocal microscopy. The area of red fluorescence in the taken images was determined. N=3+/−SEM pANOVA<0.05. FIG. 3E provides representative images. […] FIG. 3F provides the Western blot against LC3 in INS1 cells treated with the compounds in presence or absence of bafilomycin (+b) for the last 2 hours.
Mitotracker Green Fluorescence, Anion Radical Superoxide and Mitochondrial Membrane Potential. INS1 cells were seeded into wells of a 96-wells glass bottom cell culture plate (CELLSTAR) at a density of 2*10^4 cells/well. To assess mitochondrial clearance, a pulse-chase experiment was performed. […] Results are expressed as the percentage of MTG fluorescence relative to MTG fluorescence of the “time 0” control. […] Integrated fluorescence of each field was analyzed in Image J after background subtraction and threshold (IsoData) application. Twenty-four fields of each condition were analyzed in each experiment.

C[C@H]1c2cccc(O)c2C(=O)C2=C(O)[C@]3(O)C(=O)C(C(N)=O)=C(O)[C@@H](N(C)C)[C@@H]3[C@@H](O)[C@@H]21 [Doxycycline] was tested, and the cell growth [1] was “impairs” and the “basal oxygen consumption rate (OCR)” value [2] was “impairs”.

CO[C@H]1C[C@@H]2CC[C@@H](C)[C@@](O)(O2)C(=O)C(=O)N2CCCC[C@H]2C(=O)O[C@H]([C@H](C)C[C@@H]2CC[C@@H](O)[C@H](OC)C2)CC(=O)[C@H](C)/C=C(\C)[C@@H](O)[C@@H](OC)C(=O)[C@H](C)C[C@H](C)/C=C/C=C/C=C/1C [Rapamycin, reference compound] was tested, and the “increase of MitoTimer red/green ratio” value [3] was 50%.

In the case of O=c1oc2cc(O)ccc2c2ccc(O)cc12 [Urolithin A, reference compound], the “mitochondrial mass (mitotracker green fluorescence)” value [4] is reported as “reduction” and the “MitoTimer red/green ratio (known modulators)” value [3] is reported as “significantly reduced”.

For CO/C1=C\C(C)=C\[C@@H](C)[C@@H](O)[C@@H](C)C/C(C)=C/C=C/[C@H](OC)[C@@H]([C@@H](C)[C@@H](O)[C@H](C)[C@@]2(O)C[C@@H](O)[C@H](C)[C@@H](C(C)C)O2)OC1=O [bafilomycin A1, reference compound], the “MitoTimer red/green ratio (known modulators)” value [3] was “increased”.
